Test results taken from patent publication US20040110826A1, “Receptor Antagonists” (priority 2001, published 2004).

Columns and labels:
[1] = tested on: MPTP-treated common marmoset; assay: Anti-dyskinesia activity: LID score in MPTP-treated common marmoset model with repeated L-DOPA; type: in vivo; details: L-DOPA-induced dyskinesia (LID) score, test compound plus L-DOPA vs vehicle plus L-DOPA, 4 animals per group
Description: Parkinson's disease is characterized by degeneration and neuronal cell death of the nigrostriatal dopaminergic neurons. In primates, treatment with a dopamine neurotoxin, 1-methyl-4-phenyl-1,2,3,6-tetrahydropyridine (hereinafter referred to as “MPTP”), causes selective degeneration and loss of the nigrostriatal dopaminergic neurons, showing akinesia, rigidity, etc. These MPTP-treated primates are known as a model of Parkinson's disease [Proceedings of the National Academy of Science USA, Vol. 80, p. 4546 (1983)]. Common marmoset belongs to Anthropoidea and is known to show Parkinsonian symptoms caused by MPTP treatment as in the case of other Anthropoidea [Neuroscience Letter, Vol. 57, p. 37 (1985)). On the other hand, current treatment for Parkinson's disease is based primarily on dopamine replacement therapy by administration of L-DOPA. The administration of L-DOPA is effective treatment of symptoms associated with Parkinson's disease (anti-Parkinson activity). However, the long-term therapy using L-DOPA is known to cause loss of medicinal efficacy (wearing off and on-off), dyskinesia, psychosis, etc. Particularly, L-DOPA-induced dyskinesia (hereinafter referred to as “LID”) has become an issue due to the frequency of its development and the pain of the patients. […] 731 (1995)].
This test was carried out using 4 animals per group of female and male common marmosets of 5 to 7 years of age (300 to 375 g in body weight, CLEA Japan). MPTP (RBI) was dissolved in physiological saline for injection (Otsuka Pharmaceutical Co., Ltd.) and subcutaneously administered to each common marmoset once a day for 5 days in a dose of 2.0 mg/kg. More than six weeks after the administration, animals showing chronic symptoms of Parkinson's disease were used to prepare a model of dyskinesia. […] The locomotor activity was measured at 10-minute intervals for 12 hours by a computer-controlled automatic measuring apparatus. […]

[2] = biological target: T1, α2C-adrenoceptor (Homo sapiens, UniProt P18825); details: described in J. Pharmacol. Exp. Ther. 271, 1558 (1994) and Proc. Natl. Acad. Sci. USA 85, 6301 (1988); cited from earlier work
T1 sequence (P18825 1-462): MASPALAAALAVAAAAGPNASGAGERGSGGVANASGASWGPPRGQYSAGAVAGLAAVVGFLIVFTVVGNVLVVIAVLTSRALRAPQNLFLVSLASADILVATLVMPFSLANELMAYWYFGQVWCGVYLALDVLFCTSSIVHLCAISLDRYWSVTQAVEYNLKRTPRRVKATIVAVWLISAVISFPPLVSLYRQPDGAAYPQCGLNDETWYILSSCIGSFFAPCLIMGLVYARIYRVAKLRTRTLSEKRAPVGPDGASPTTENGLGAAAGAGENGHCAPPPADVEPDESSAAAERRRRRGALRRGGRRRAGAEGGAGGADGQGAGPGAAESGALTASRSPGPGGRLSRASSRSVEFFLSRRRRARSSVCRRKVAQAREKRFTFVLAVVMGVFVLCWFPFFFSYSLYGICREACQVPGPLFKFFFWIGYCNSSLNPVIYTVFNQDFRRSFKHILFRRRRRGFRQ

Compound	melting point	anti-dyskinesia activity [1]	affinity to α2C-adrenoceptor [2]
Nc1ncc(CN2CCN(Cc3ccncc3)CC2)c2nc(-c3ccco3)nn12 [Compound 35, 5-Amino-2-(2-furyl)-8-[4-(4-pyridylmethyl)piperazin-1-ylmethyl][1,2,4]triazolo[1,5-c]pyrimidine]	168.7 to 169.2 °C	–	–
COc1ccccc1N1CCN(CCN2C(=O)c3ccccc3C(C)(C)C2=O)CC1 [ARC239]	–	showed anti-dyskinesia activity	having an affinity to α2C-adrenoceptor
CC1c2ccccc2CN1CC1=NCCN1 (stereo not shown) [BRL44408]	–	did not show anti-dyskinesia activity	low affinity
c1ccc2c(c1)OCC(C1=NCCN1)O2 (stereo not shown) [idazoxan]	–	showed anti-dyskinesia activity	having an affinity to α2C-adrenoceptor
